Reference: patent publication US20240246942A1, “KINASE INHIBITORS FOR THE TREATMENT OF NEURODEGENERATIVE DISEASES” (priority 2020, published 2024)

Assays:
Test in all cases: biochemical
[1] = biological target: T1, panel of 374 wild-type kinases (Homo sapiens, UniProt P54764); settings: read-out: % Enzyme Activity (relative to DMSO controls), EPHA4
T1 construct: purchased Reaction Biology Corporation

[2] = biological target: T2, panel of 374 wild-type kinases (Homo sapiens, UniProt P51813); settings: read-out: % Enzyme Activity (relative to DMSO controls), BMX/ETK
T2 construct: purchased Reaction Biology Corporation
T2 sequence (P51813 1-675): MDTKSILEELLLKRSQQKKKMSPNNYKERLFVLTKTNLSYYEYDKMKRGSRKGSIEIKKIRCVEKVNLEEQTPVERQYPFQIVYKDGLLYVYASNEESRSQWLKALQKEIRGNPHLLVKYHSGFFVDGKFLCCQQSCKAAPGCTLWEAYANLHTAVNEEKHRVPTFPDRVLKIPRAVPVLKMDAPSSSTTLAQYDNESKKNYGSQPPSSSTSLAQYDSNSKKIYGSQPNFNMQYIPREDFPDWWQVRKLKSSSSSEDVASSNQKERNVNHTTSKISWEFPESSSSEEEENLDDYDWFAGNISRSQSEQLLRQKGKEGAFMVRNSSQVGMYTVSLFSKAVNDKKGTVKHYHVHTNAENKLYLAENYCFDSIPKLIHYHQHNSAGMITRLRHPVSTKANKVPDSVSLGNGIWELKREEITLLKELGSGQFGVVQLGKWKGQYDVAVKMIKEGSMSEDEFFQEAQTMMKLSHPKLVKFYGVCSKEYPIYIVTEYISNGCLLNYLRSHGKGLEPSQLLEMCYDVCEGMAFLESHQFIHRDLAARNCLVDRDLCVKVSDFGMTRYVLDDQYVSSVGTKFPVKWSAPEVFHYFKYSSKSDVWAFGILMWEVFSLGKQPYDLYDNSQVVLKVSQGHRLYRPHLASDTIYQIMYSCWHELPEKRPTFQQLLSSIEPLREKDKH

[3] = biological target: T3, panel of 374 wild-type kinases (Homo sapiens, UniProt Q99759); settings: read-out: % Enzyme Activity (relative to DMSO controls), MEKK3
T3 construct: purchased Reaction Biology Corporation
T3 sequence (Q99759 1-626): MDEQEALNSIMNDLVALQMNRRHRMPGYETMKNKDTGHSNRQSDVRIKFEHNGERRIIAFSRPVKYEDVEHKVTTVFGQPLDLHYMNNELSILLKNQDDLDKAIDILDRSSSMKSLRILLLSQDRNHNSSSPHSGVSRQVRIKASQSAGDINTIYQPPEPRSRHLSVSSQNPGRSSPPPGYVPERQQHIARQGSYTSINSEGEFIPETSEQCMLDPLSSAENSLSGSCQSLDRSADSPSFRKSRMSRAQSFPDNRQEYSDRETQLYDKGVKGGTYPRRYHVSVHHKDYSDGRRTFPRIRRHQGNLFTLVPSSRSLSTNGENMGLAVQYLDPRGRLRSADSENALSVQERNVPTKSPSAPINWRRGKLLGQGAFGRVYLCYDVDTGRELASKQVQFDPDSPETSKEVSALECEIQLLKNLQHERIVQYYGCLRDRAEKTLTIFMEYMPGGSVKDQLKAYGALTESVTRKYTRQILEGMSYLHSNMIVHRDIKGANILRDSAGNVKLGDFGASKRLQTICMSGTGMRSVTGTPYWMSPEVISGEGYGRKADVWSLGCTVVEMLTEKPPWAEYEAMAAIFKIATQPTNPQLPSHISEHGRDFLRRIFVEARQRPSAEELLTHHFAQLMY

[4] = biological target: T4, panel of 374 wild-type kinases (Homo sapiens, UniProt Q96KB5); settings: read-out: % Enzyme Activity (relative to DMSO controls), kinase PBK/TOPK
T4 construct: purchased Reaction Biology Corporation
T4 sequence (Q96KB5 1-322): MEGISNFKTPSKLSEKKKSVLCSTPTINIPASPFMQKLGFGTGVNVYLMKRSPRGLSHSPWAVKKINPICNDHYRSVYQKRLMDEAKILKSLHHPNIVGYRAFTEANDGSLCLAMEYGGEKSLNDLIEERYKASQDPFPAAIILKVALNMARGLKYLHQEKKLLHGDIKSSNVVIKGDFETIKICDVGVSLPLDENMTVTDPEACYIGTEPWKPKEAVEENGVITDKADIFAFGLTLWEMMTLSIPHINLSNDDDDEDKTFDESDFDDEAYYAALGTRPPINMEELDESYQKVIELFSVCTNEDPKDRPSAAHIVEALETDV

[5] = biological target: T5, panel of 374 wild-type kinases (Homo sapiens, UniProt P29322); settings: read-out: % Enzyme Activity (relative to DMSO controls), EPHA8
T5 construct: purchased Reaction Biology Corporation
T5 sequence (P29322 28-1005): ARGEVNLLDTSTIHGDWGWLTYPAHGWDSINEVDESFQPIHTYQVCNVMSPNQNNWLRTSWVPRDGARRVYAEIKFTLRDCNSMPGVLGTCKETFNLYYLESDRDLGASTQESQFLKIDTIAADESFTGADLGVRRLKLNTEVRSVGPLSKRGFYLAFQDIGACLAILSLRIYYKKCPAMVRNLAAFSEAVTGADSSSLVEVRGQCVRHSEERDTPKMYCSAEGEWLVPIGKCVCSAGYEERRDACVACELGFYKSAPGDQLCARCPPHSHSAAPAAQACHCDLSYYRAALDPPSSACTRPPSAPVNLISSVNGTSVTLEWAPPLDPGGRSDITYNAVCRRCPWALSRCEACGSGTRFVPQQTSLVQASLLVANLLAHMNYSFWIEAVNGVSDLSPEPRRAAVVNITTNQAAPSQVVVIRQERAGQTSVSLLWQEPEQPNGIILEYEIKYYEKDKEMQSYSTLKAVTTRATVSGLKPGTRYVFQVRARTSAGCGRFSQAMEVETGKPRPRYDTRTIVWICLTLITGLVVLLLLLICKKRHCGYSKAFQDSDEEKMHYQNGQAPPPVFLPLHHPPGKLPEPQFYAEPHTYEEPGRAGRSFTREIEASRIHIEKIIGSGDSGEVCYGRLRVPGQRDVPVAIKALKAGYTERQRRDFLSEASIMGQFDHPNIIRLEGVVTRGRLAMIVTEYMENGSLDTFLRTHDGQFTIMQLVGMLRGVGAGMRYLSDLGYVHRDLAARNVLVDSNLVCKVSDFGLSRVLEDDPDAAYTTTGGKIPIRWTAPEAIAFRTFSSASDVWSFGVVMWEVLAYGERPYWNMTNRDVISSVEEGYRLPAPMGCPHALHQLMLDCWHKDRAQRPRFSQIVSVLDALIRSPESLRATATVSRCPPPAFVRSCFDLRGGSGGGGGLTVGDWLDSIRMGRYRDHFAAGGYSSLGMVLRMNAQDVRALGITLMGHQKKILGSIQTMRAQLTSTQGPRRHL

[6] = biological target: T6, panel of 374 wild-type kinases (Homo sapiens, UniProt P17948); settings: read-out: % Enzyme Activity (relative to DMSO controls), FLT1/VEGFR1
T6 construct: purchased Reaction Biology Corporation
T6 sequence (P17948 27-1338): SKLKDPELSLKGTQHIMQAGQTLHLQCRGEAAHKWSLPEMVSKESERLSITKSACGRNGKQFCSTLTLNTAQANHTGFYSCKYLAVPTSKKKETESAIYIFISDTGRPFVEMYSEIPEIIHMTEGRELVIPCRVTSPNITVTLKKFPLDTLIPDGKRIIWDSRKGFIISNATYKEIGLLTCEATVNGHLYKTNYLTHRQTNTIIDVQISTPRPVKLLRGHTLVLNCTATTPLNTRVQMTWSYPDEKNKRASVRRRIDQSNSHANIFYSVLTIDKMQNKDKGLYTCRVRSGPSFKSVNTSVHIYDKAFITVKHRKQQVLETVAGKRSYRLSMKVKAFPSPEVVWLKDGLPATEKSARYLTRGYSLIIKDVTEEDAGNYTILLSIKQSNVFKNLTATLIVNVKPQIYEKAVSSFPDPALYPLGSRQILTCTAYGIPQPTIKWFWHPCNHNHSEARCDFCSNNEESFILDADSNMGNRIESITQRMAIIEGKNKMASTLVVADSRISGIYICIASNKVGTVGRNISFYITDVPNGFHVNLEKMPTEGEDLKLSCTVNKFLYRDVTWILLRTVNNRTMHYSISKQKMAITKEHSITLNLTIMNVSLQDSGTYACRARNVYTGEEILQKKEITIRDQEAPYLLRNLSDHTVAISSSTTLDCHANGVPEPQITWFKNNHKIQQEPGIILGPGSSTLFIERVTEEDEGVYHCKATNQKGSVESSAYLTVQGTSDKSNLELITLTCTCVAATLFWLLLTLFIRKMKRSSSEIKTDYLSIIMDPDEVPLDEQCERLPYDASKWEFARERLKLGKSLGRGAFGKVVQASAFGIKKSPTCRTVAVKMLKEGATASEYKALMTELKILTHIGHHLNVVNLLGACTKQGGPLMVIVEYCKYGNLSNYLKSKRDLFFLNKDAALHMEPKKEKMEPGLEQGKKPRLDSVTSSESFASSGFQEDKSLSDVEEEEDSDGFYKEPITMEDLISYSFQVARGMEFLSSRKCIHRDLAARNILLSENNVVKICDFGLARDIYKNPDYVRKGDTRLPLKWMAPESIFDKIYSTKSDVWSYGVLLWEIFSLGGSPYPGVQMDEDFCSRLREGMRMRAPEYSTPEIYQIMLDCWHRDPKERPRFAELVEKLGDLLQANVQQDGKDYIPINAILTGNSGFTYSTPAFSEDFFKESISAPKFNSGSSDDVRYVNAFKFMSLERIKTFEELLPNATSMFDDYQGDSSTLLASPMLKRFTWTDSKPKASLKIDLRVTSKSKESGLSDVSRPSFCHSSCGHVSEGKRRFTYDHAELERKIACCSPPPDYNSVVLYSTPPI

T1 sequence (P54764 20-986): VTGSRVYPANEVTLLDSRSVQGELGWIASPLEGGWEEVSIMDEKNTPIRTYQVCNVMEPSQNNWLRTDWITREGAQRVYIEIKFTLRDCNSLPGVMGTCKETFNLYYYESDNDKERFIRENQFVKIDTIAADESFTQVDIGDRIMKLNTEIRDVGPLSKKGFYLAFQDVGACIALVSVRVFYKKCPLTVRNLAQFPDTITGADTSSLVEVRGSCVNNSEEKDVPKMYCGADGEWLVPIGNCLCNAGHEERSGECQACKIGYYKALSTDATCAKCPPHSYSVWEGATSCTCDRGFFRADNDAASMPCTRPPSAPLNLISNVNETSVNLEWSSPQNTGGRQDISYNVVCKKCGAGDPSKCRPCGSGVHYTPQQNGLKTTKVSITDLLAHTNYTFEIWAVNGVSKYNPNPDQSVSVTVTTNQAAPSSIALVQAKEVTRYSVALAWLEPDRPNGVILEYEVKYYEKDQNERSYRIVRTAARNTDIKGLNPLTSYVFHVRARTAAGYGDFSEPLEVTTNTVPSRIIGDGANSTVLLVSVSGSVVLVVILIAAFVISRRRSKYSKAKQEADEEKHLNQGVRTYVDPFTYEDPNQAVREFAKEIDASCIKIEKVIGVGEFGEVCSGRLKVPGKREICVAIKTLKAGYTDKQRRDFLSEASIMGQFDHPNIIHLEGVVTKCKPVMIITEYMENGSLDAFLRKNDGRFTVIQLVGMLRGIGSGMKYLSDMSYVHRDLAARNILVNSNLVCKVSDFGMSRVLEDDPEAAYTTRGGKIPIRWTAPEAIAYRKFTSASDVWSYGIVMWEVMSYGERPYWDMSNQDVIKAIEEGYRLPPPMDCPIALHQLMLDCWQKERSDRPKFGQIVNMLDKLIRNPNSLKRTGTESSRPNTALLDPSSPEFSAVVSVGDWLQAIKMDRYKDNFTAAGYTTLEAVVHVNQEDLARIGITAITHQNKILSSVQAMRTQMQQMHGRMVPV

Row | Structure (SMILES) | remaining activity at 5 µM [1] [%] | remaining activity at 5 µM [2] [%] | remaining activity at 5 µM [3] [%] | remaining activity at 5 µM [4] [%] | remaining activity at 5 µM [5] [%] | remaining activity at 5 µM [6] [%] | remaining activity at 10 µM ([1]; 10 uM) [%] | remaining activity at 10 µM ([2]; 10 uM) [%] | remaining activity at 10 µM ([3]; 10 uM) [%] | remaining activity at 10 µM ([4]; 10 uM) [%] | remaining activity at 10 µM ([5]; 10 uM) [%] | remaining activity at 10 µM ([6]; 10 uM) [%]
1 | O=C(Nc1cnn(-c2csc(C(=O)NC3COC3)c2)c1)Nc1ccccc1Cl [Compound 17, 4-(4-(3-(2-chlorophenyl)ureido)-1H-pyrazol-1-yl)-N-(oxetan-3-yl)thiophene-2-carboxamide] | 100 | 106 | 113 | 115 | 103 | 101 |  |  |  |  |  | 
2 | Cc1sc(C(=O)NC2COC2)cc1-n1cc(NC(=O)Nc2c(F)cccc2Cl)cn1 [Compound 27, 4-(4-(3-(2-chloro-6-fluorophenyl)ureido)-1H-pyrazol-1-yl)-5-methyl-N-(oxetan-3-yl)thiophene-2-carboxamide] |  |  |  |  |  |  | 116 | 92.9 | 113 | 88.5 | 91.7 | 84.1
3 | O=C(Nc1cnn(-c2csc(C(=O)NC3COC3)c2)c1)Nc1c(F)cccc1Cl [Compound 25, 4-(4-(3-(2-chloro-6-fluorophenyl)ureido)-1H-pyrazol-1-yl)-N-(oxetan-3-yl)thiophene-2-carboxamide] | 89.1 | 96.8 | 81.9 | 98.2 | 93.8 | 86.1 |  |  |  |  |  | 
